From patent EP0170926B1, “Eburnanecarboxylic acid derivatives having an amino group in position 9 or 11, the amino group eventually being substituted, process for their preparation, and medicaments containing these compounds” (priority 1984, dated 1986)
Converted amounts (≈) assume the structure as drawn. Structures can show the parent of a compound that is named as a salt. Where two headings read alike, the source gives them in different places.

Key:
[1] = Antihypoxic effect, investigations without described method; conditions: in vivo
[2] = Vasodilating effect, tests without described method; conditions: in vivo
[3] = system: isolierten Meerschweinchenileum; assay: Spasmolytic activity: inhibition of barium chloride-induced contraction of isolated guinea pig ileum; parameters: species or system Meerschweinchen; conditions: Cavia porcellus
From the text: Die spasmolytische Aktivität der Verbindungen wurde am isolierten Meerschweinchendarm auf klassische Weise bestimmt (Magnus, R., Pflügers Arch., 102; 123/1904/). Als Referenzsubstanz wurden das bekannte Spasmolytikum Papaverin, ferner (+)-Apovincaminsäureäthylester verwendet. Die Ergebnisse sind in der Tabelle II zusammengefaßt.

[4] = system: nicht narkotisierter Mäuse; assay: Antihypoxic effect: normobaric hypoxia in non-anaesthetised mice; type: in vivo; conditions: for Überlebensdauer (min): 50 mg/kg intraperitoneal 30 min before test, 96 % nitrogen, 4 % oxygen, mean ± spread; for Überlebensdauer (%) Verlängerung: prolongation versus control
From the text: Die antihypoxische Wirkung wurde an nicht narkotisierten Mäusen in normobarer Hypoxie bestimmt. Fünf männliche Mäuse wurden in einen Glaszylinder von 3 Liter Volumen gesetzt, und in den Zylinder wurde ein aus 96 % Stickstoff und 4 % Sauerstoff bestehendes Gasgemisch eingeleitet. Gemessen wurde die Zeit zwischen dem Einbringen der Tiere in den Zylinder und ihrem Verenden. Diejenigen Tiere, die die unbehandelte Kontrolle um mehr als die doppelte Zeitspanne überlebten, können als erfolgreich behandelt gelten. Die zu untersuchenden Substanzen wurden je 10 Tieren in einer Dosis von 50 mg/kg Intraperitoneal 30 Minuten vor Versuchsbeginn verabreicht.

Tiere [5] = assay: Antihypoxic effect: asphyxic anoxia; type: in vivo; conditions: po, 1 h; p.o., one hour before test; protected = survival 30 % longer than control; read-out: ED50 Asphyxische Anoxie
Description: Die antihypoxische Wirkung wurde ferner hoch an asphyxischer Anoxie (Caillard C. et al.: Life Sci. 16, 1607 /1975/) und an hypobarer Hypoxie (Baumel J. et al: Proc. Soc. Biol. N.Y. 132, 629 /1969/) gemessen. Dabei wurden die Tiere 16 Stunden lang ausgehungert, dann p.o. behandelt und eine Stunde später in gut schließende Glasgefäße von 100 ml Volumen gesetzt. Als Überiebenszeit wurde die Zeit vom Verschließen des Gefäßes bis zur letzten Atembewegung registriert. Als erfolgreich behandelt können diejenigen Tiere gelten, die eine um 30 % längere Zeit an Leben blieben als der Durchschnitt der Kontrollgruppe.

Tiere [6] = assay: Antihypoxic effect: hypobaric hypoxia; type: in vivo; conditions: po, 1 h; p.o., one hour before test; 221 mbar; protected = survival 100 % longer than control; probit analysis; read-out: ED50 Hypobare Hypoxie
From the text: Die Wirkung auf die hypobare Hypoxie wurde an 16 Stunden lang ausgehungerten Tieren untersucht, die eine Stunde vor Versuchsbeginn p.o. mit den Verbindungen behandelt wurden. Die Tiere wurden In einen Vakuumexsikkator gesetzt, und der Druck wurde innerhalb von 20 Sekunden auf 221 mbar [170 Torr] gesenkt. Von diesem Zeitpunkt an wurde als Überlebensdauer die Zeit bis zur letzten Atembewegung gemessen. Als erfolgreich behandelt wurden diejenigen Tiere betrachtet, deren Überlebensdauer um 100 % länger war als die durchschnittliche Übedebensdauer der Kontrolle. Aus dem prozentualen Anteil der geschützten Tiere wurden mittels Probit-Analyse die ED50-Werte berechnet.

[7] = system: Kreislauf narkotisierter Hunde; assay: Vasodilating effect: blood flow in anaesthetised dogs (electromagnetic flow meter); type: in vivo; conditions: Canis lupus familiaris, 1 mg/kg intravenous, six dogs
Description: Die gefäßerweiternde Wirkung wurde an mit "Chloralose-Pentobarbital"-Gemisch narkotisierten Hunden untersucht. Die Durchblutung der Extremitäten wurde an der Arteria femoralis gemessen, über die Durchblutung des Gehirns ergaben Messungen an der Arteria carotis interna Aufschluß. Zu den Messungen wurden elektromagnetische Strömungsmesser verwendet. Die zu untersuchenden Substanzen wurden in einer Dosis von 1 mg/kg Körpergewicht sechs Hunden appliziert, und die in den gemessenen Parametern eintretenden Veränderungen wurden in Prozent umgerechnet. Als Referenzsubstanz diente der in der Medizin als gefäßerweiternde Substanz allgemein angewendete (+)-Apovincamlnsäureäthylester. Die Ergebnisse sind In der Tabelle I zusammengefaßt.

Mäusen [8] = assay: Anticonvulsive effect: maximal electroshock in mice; type: in vivo; conditions: Mus musculus, po; 20 mA, 0,2 s, corneal electrode; read-out: ED50 max. Elektroschock
From the text: Der Schock wurde an 22 - 24 g schweren Tieren durch eine corneale Elektrode ausgelöst (20 mA, 0,2 s, HSE-Schockgerät Typ 207). Als geschützt wurden diejenigen Tiere betrachtet, bei denen durch die Behandlung die tonische Extension der hinteren Gliedmaßen ausblieb.

Mäusen [9] = assay: Anticonvulsive effect: metrazole (pentylenetetrazole) convulsion in mice; type: in vivo; conditions: Mus musculus, po; 125 mg/kg pentylenetetrazole subcutaneous; read-out: ED50 Metrazolkrampf
From the text: Die Tiere erhielten nach der Vorbehandlung subkutan 125 mglkg Pentylentetrazol. Registriert wurde das Ausbleiben des persistierenden clonischen Krampfes und des tonischen Extensorkrampfes.

in vivo [10] = assay: in vivo; parameters: species or system Mäuse; conditions: mouse, po
From the text: Muskelrelaxierende Wirkung (Traction).

in vivo [11] = conditions: for TD50: po
Description: Messung der Muskelinkoordination (Rotarod) (H. Kwibara et al.: Japan J. Pharmacol. 27, 117 /1977/). Nach vorherigem Training wurden Tiere ausgewählt die im Stande sind, 120 Sekunden lang auf dem horizontalen Stab (Durchmesser 20 mm, Drehzahl 12 min^-1) oben zu bleiben. Als Muskelinkoordination wurde gewertet, wenn die Tiere innerhalb der Limitzeit herabfielen.

[12] = inhibition of barium chloride-induced contraction, read-out: ED50 (the source's name)
[13] = blood flow of Arteria carotis interna (brain), read-out: A. carotis (Veränderungen in Prozent)
[14] = blood flow of Arteria femoralis (extremities), read-out: A. femoralis (Veränderungen in Prozent)

For `CCC12C=C(C(=O)OC)n3c4c(c5c([N+](=O)[O-])cccc53)CCN(CCC1)C42` (centres unmarked) [9-Nitro-apovincamin], the “antihypoxische Wirkung” value [1] was “keine antihypoxische Wirkung”.

For `CCC12CCCN3CCc4c(n(c5cccc([N+](=O)[O-])c45)C(O)(C(=O)OC)C1)C32` (centres unmarked) [9-Nitro-vincamin], the “gefäßerweiternde Wirkung” value [2] was “keine gefäßerweiternde Wirkung”.

For `CCOC(=O)C1=C[C@]2(CC)CCCN3CCc4c(n1c1ccccc41)[C@@H]32` [Apovincaminsäureäthylester, reference compound], the IC50 [3, 12] was 2 µg/mL (≈ 5.71 µM), the “Überlebensdauer (min)” value [4] was 6,4 ± 1,58 min and the “Überlebensdauer (%) Verlängerung” value ([4]; 50 mg/kg intraperitoneal) was 7%. It also gave an ED50 (Tiere [5]) of over 50 mg/kg and an ED50 (Tiere [6]) of over 50 mg/kg.

With `CCOC(=O)C1=C[C@]2(CC)CCCN3CCc4c(n1c1cccc(N)c41)[C@@H]32` [Beispiel 6, 9-(Amino)-apovincaminsäureäthylesterhydrochlorid] the “Überlebensdauer (min)” value [4] was 7,3 ± 2,31 min, the “Schutz (%)” value ([4]; 50 mg/kg intraperitoneal, animals surviving more than twice the control time) was 10% and the “Überlebensdauer (%) Verlängerung” value ([4]; 50 mg/kg intraperitoneal) was 22%.

Molecule `CCOC(=O)C1=C[C@]2(CC)CCCN3CCc4c(n1c1cccc(NS(C)(=O)=O)c41)[C@@H]32` [Beispiel 7, 9-(Methylsulfonylamino)-apovincaminsäureäthylesterhydrochlorid] has a change in vivo at 1 mg/kg [7, 13] of 0%.

Work on `CC[C@@]12C=C(C(=O)OC)n3c4c(c5ccc(NC(=O)c6ccc([N+](=O)[O-])cc6)cc53)CCN(CCC1)[C@H]42` [Beispiel 9, 11-[4'-(Nitro)-benzoylamino]-apovincamin] yielded an ED50 (Tiere [5]) of 40.9 mg/kg and an ED50 (Tiere [6]) of 42.1 mg/kg.

`CC[C@@]12C=C(C(=O)OC)n3c4c(c5ccc(NC(C)=O)cc53)CCN(CCC1)[C@H]42` [Beispiel 21, 11-(Acetamido)-apovincamin] gave a change in vivo at 1 mg/kg [7, 14] of 0%.

Work on `CC[C@@]12C=C(C(=O)OC)n3c4c(c5ccc(NC(=O)c6ccccc6F)cc53)CCN(CCC1)[C@H]42` [Beispiel 26, 11-[2'-(Fluor)-benzoylamino]-apovincamin] yielded an IC50 [3, 12] of 4 µg/mL (≈ 8.45 µM).

Work on `CC[C@@]12C=C(C(=O)OC)n3c4c(c5ccc(NC(=O)c6ccccc6)cc53)CCN(CCC1)[C@H]42` [Beispiel 28, 11-(Benzoylamino)-apovincamin] yielded an IC50 [3, 12] of 2.5 µg/mL (≈ 5.49 µM), an ED50 (Tiere [5]) of 25 mg/kg and an ED50 (Tiere [6]) of over 50 mg/kg. The ED50 (Mäusen [8]) was 16 mg/kg and the ED50 (Mäusen [9]) was 15.9 mg/kg.

With `CCOC(=O)C1=C[C@]2(CC)CCCN3CCc4c(n1c1cc(NC(=O)c5cccs5)ccc41)[C@@H]32` [Beispiel 37, 11-(Thien-2'-ylcarbonylamino)-apovincaminsäureäthylesterhydrochlorid] the change in vivo at 1 mg/kg [7, 14] was 0%.

Work on `CCOC(=O)C1=C[C@]2(CC)CCCN3CCc4c(n1c1cc(NC(=O)c5ccccc5)ccc41)[C@@H]32` [Beispiel 38, 11-(Benzoylamino)-apovincaminsäureäthylesterhydrochlorid] yielded a change in vivo at 1 mg/kg [7, 14] of 0%, an ED50 (Mäusen [8]) of 16.7 mg/kg and an ED50 (Mäusen [9]) of 9.7 mg/kg. For the same molecule, the TD50 (in vivo [10]) was over 180 mg/kg and the TD50 (in vivo [11]) was over 180 mg/kg.

`CC[C@@]12C=C(C(=O)OCC(C)C)n3c4c(c5ccc(NC(C)=O)cc53)CCN(CCC1)[C@H]42` [Beispiel 39, 11-(Acetamido)-apovincaminsäureisobutylesterhydrochlorid] showed a change in vivo at 1 mg/kg [7, 14] of 0%.

`CCOC(=O)C1=C[C@]2(CC)CCCN3CCc4c(n1c1cccc(NC(C)=O)c41)[C@@H]32` [Beispiel 40, 9-(Acetamido)-apovincaminsäureäthylesterhydrochlorid] gave a change in vivo at 1 mg/kg [7, 13] of 0%.

`CCC1(c2ccccc2)NC(=O)N(C)C1=O` (centres unmarked) [Mephenitoin, reference compound] gave an ED50 (Tiere [5]) of over 80 mg/kg, an ED50 (Tiere [6]) of over 80 mg/kg and an ED50 (Mäusen [8]) of 26.3 mg/kg. The ED50 (Mäusen [9]) was 24.5 mg/kg, the TD50 (in vivo [10]) was 154 mg/kg and the selectivity ratio (in vivo [11]; mouse) was 3 to 6. It also gave a TD50 (in vivo [11]) of 78.6 mg/kg.

In the case of `COc1ccc(Cc2nccc3cc(OC)c(OC)cc23)cc1OC` [Papaverin, reference compound], the IC50 ([3]; read-out: ED50) is reported as 5.4 µg/mL (≈ 15.9 µM).

In the case of `CC[C@]12CCCN3CCc4c(n(c5ccccc45)[C@@](O)(C(=O)OC)C1)[C@@H]32` [Vincamin], the “Überlebensdauer (min)” value [4] is reported as 6,1 ± 1,30 min and the “Überlebensdauer (%) Verlängerung” value ([4]; 50 mg/kg intraperitoneal) is reported as 2%.
